From ChEMBL document CHEMBL1147623, “Interference of the galactose-dependent binding of lectins by novel pentapeptide ligands” (Bioorg Med Chem Lett, 2004)

What was measured:
[1] = Inhibition of CG-14 binding was determined in solid phase assay; design: species or system Gallus gallus
[2] = Inhibition of galectin-1 binding was determined in solid phase assay

| Structure (SMILES) | IC50 [1] [mM] | IC50 [2] [mM] |
| --- | --- | --- |
| CC(O)[C@@H](NC(=O)COCC(=O)NCCCOCCOCCOCCCN)C(=O)N[C@@H](Cc1ccc(O)cc1)C(=O)N[C@H](CC(=O)O)C(=O)N[C@@H](Cc1ccc(O)cc1)C(=O)N[C@@H](Cc1ccccc1)C(N)=O (some centres undefined) | 7.5 | 5.2 |
| CC(C)C[C@H](NC(=O)[C@H](Cc1ccc(O)cc1)NC(=O)[C@@H](CC(=O)O)NC(=O)COCC(=O)NCCCOCCOCCOCCCN)C(=O)N[C@@H](Cc1ccc(O)cc1)C(=O)N[C@@H](Cc1ccccc1)C(N)=O | 6.9 | 8 |
